Experiments:
[1] = Two-photon cross section and action spectra; type: physicochemical; settings: in methanol in the presence of Zn2+; 780 nm
Experimental: The two-photon cross section (δ) was determined by using femto second (fs) fluorescence measurement technique.
The intensities of the two-photon induced fluorescence spectra of the reference and the sample probe were measured, and the two-photon cross section of the sample probe was calculated according to Equation 3:
[formula] wherein the subscripts s and r represent sample and reference molecules, respectively, δ represents the two-photon cross section, S represents the strength of signals collected by a CCD detector, φ represents the fluorescence quantum efficiency, φrepresents the total fluorescence collection efficiency of an experimental system, c represents the number density of the molecules within each of the solutions, and δr represents the two-photon cross section of reference molecules.
Referring to FIG. 9, the two-photon action spectra of the Zn^2+ complexes with AZn1 and AZn2 in the buffer solutions indicated a φδ value of ˜90 GM at 780 nm, 4˜24-fold larger than those of TSQ and FluZin-3.

[2] = Fluorescence quantum yield (Coumarin 307 as reference); type: physicochemical; settings: in methanol in the presence of Zn2+
Experimental: The absorption spectra of the two-photon probes were recorded on a Hewlett-Packard 8453 diode array spectrophotometer, and the fluorescence spectra of the two-photon probes were obtained with an Amico-Bowman series 2 luminescence spectrometer with a 1 cm standard quartz cell. The fluorescence quantum yields of the two-photon probes were determined by using Coumarin 307 as the reference by the literature method (J. N. Demas, G. A. Crosby, J. Phys. Chem. 1971, 75, 991-1024.). FIGS. 2a and 2b are one-photon absorption and emission spectra of the two-photon probe AZn1, respectively, and FIGS. 2c and 2d are one-photon absorption and emission spectra of the two-photon probe AZn2, respectively.

δ, peak two-photon cross section [1]: 10 GM | φδ, two-photon action cross section [1]: 4 GM | fluorescence quantum yield φ [2]: 0.43
Structure (SMILES): COc1cc(NS(=O)(=O)c2ccc(C)cc2)c2ncccc2c1 [TSQ, reference compound]
